# Earlier results as cited in patent US20260053818A1, “PHARMACEUTICAL FORMULATION FOR THE TREATMENT OF INFLAMMATORY CHANGES TO THE RECTUM” (Dr. Falk Pharma GmbH, priority 2015, published 2026).
# Details: Merck Index
compound,measurement,value
CCCC1O[C@@H]2C[C@H]3[C@@H]4CCC5=CC(=O)C=C[C@]5(C)[C@H]4[C@@H](O)C[C@]3(C)[C@]2(C(=O)CO)O1 (stereo partly shown) [budesonide],solubility in water,0.014 mg/mL
